US6221867A, “4,5-pyrazinoxindoles” (Hoffmann-La Roche Inc., priority 1999, dated 2001)

Molecular target: rat SAPK (isoform β) (Rattus norvegicus, UniProt P49187)
Test: SAPK FlashPlate Assay (inhibition of cJun phosphorylation)
Type: biochemical
Details: for SAPK % Inhibition: at test concentration 0.5 μM, GST-cJun substrate, 33P-ATP
Protocol: "IC50 " refers to the concentration of a particular 4,5-pyrazinoxindole required to inhibit 50% of cJun phosphorylation, which is a measure of inhibition of SAPK activity. IC50 can be measured, inter alia, using the assay described herein in Example 7, infra.
Human JNK is highly homologous to rat SAPK. To measure the inhibitory activity of test compounds, the compounds were tested in the rat SAPK assay. For the SAPK assay, purified GST-cJun (a chimeric protein containing cJun, a natural substrate of JNK) was coated on 96 well FlashPlates (New England Nuclear, Boston, Mass.). Purified rat SAPK (isoform β, Kyriakis et al. supra) was preincubated with preparations containing MEKK-1 and MKK4 for 30 minutes at 37° C. in assay buffer containing 25 mM HEPES, pH 7.5, 150 mM NaCl, 20 mM MgCl2, 2 mM DTT, 0.001% Tween 20, 1 μM ATP freshly added. In the preincubation step, MEKK-1 phosphorylates and activates MKK-4, which in turn phosphorylates and activates SAPK. The activated SAPK was then added to the cJun coated FlashPlates along with ^33 P-ATP (0.32 μCi per reaction) and test compounds. The plates were incubated for 30 minutes at 37° C., then washed with PBS, 0.01% Tween 20, and counted in the Topcount scintillation counter (Packard Instrument Co., Downers Grove, Ill.). Dilutions of compounds were tested in duplicate in each assay. The percent inhibition of cJun phosphorylation (a measure of inhibition of SAPK activity) was determined by the following formula: [formula]
where "test compound" refers to the average counts per minute of the test duplicates, "nonspecific" refers to the average counts per minute when no SAPK was added, and "total" refers to the average counts per minute when no compound was added.

Chain of rat SAPK (isoform β) (P49187 whole entry, canonical isoform): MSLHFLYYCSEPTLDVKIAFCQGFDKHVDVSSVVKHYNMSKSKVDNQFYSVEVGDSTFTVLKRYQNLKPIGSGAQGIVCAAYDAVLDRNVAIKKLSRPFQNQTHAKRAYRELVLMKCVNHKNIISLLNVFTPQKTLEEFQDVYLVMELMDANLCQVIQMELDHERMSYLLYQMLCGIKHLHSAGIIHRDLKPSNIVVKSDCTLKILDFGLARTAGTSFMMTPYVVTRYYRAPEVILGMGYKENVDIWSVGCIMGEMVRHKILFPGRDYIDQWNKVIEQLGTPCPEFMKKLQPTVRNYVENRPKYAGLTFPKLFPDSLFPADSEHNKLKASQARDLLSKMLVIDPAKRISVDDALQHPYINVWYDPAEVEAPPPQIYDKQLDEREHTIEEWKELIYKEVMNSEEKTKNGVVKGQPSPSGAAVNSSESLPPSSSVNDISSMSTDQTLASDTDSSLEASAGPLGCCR

Molecule	inhibition at 0.1 µM (read-out: SAPK % Inhibition) [%]	SAPK % Inhibition [%]	further results
COc1cc[nH]c1/C=C1\C(=O)Nc2ccc3nc(C)c(C)nc3c21 [A, (Z)-7,9-Dihydro-2,3-dimethyl-9-[(3-methoxy-1H-pyrrol-2-yl)methylene]-8H-pyrrolo-[3,2-f]quinoxalin-8-one]	≥ 50		
COc1cc[nH]c1/C=C1\C(=O)Nc2ccc3nc(-c4ccco4)c(-c4ccco4)nc3c21 [D, (Z)-7,9-Dihydro-2,3-di-(2-furanyl)-9-[(3-methoxy-1H-pyrrol-2-yl)methylene]-8H-pyrrolo[3,2-f]quinoxalin-8-one]			inhibition at 0.5 µM (read-out: SAPK % Inhibition): ≥ 50%
COc1cc[nH]c1/C=C1\C(=O)Nc2ccc3nc4c(nc3c21)CCCC4 [E, (Z)-1,3,5,6,7,8-Hexahydro-3-[(3-methoxy-1H-pyrrol-2-yl)methylene]-2H-pyrrolo[3,2-a]phenazin-2-one]	≥ 50		
(Z)-7,9-Dihydro-9-[(3-methoxy-1H-pyrrol-2-yl)methylene]-2-methyl-3-phenyl-8H-pyrrolo[3,2-f]quinoxalin-8-one and (Z)-7,9-dihydro-9-[(3-methoxy-1H-pyrrol-2-yl)methylene]-3-methyl-2-phenyl- 8H-pyrrolo[3,2-f]quinoxalin-8-one [C]		≥ 50	
Mixture of (Z)-3-butyl-7,9-dihydro-9-[(3-methoxy-1H-pyrrol-2-yl)methylene]-2-methyl-8H-pyrrolo[3,2-f]quinoxalin-8-one and (Z)-2-butyl-7,9-dihydro-9-[(3-methoxy-1H-pyrrol-2-yl)methylene]-3-methyl-8H-pyrrolo[3,2-f]quinoxalin-8-one		≥ 50	
